{
  "source": "paper PMC2785468",
  "about": "“Androgen Receptor Mutations Associated with Androgen Insensitivity Syndrome: A High Content Analysis Approach Leading to Personalized Medicine” (PLoS ONE, 2009)",
  "biological_target": "T1, AR-F764L (Homo sapiens, UniProt P10275, F765L)",
  "T1 construct": "expressed in transfected cells",
  "T1 sequence (P10275 1-920 F765L)": "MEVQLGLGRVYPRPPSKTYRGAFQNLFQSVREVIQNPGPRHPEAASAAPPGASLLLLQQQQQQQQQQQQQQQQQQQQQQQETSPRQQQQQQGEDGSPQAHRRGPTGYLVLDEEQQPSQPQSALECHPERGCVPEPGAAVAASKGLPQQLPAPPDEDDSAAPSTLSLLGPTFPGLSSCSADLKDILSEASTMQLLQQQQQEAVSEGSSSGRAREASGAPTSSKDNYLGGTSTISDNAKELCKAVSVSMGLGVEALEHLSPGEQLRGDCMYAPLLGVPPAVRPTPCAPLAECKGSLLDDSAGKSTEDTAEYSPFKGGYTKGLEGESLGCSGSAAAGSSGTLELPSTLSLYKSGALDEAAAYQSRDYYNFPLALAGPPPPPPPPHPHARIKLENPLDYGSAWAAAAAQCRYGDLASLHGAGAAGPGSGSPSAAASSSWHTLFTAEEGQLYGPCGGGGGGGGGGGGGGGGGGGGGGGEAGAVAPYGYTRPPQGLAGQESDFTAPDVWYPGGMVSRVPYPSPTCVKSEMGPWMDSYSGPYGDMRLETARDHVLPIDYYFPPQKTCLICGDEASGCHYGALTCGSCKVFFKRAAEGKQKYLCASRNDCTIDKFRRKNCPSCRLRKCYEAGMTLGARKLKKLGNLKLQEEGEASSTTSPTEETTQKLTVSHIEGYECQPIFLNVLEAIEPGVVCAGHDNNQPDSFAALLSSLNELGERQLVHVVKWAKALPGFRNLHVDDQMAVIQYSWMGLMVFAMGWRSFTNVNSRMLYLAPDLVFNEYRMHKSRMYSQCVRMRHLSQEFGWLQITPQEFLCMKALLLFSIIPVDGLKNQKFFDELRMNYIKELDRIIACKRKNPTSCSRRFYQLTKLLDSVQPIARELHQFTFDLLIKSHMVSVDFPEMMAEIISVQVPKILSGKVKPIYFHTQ",
  "type": "cell-based",
  "protocol": "To determine the global effect of the various AIS mutations on AR signaling, each was analyzed using HCA. This technology allows simultaneous quantification of AR protein expression, nuclear translocation, subnuclear patterning, and transcriptional activity. The analysis was done in HeLa cell lines stably transfected with wild type or mutant ARs fused with green fluorescent protein, or using AR immunofluorescence in primary cultures of genital skin fibroblasts generated from foreskin biopsies of historical AIS patients, or of normal neonates undergoing circumcision at birth. To prevent the effects of receptor over-expression, stable HeLa cells were carefully selected to express AR levels similar to LNCaP as previously described. Prior to ligand treatment, HeLa cells were transfected with the pARR2PB-dsRED2skl reporter plasmid, consisting of the AR responsive promoter ARR2PB [31] driving expression of the red fluorescent protein reporter dsRED2skl engineered to target peroxisomes.\nFor studies utilizing HeLa GFP-AR cell lines, twenty-four hours before transfection with pARR2PB-dsRED2skl, cells were plated onto 100 mm plastic dishes in medium supplemented with 5% charcoal-stripped and dialyzed-FBS. Transient introduction of the pARR-2PB-dsRED2skl reporter construct was performed using 6.0 µg reporter plasmid and 6.0 µg carrier DNA (BlueScript, Stratagene, San Diego, CA) using Transfectin (Biorad) following standard protocols. After 8-hour incubation, DNA/lipid complexes were removed. Cells were then trypsinized and replated at 10,000 cells per well in Nunc poly-D-lysine treated 96-well optical glass bottom plates and incubated an additional 12 hours to allow for cell adhesion. […] Compound dilutions and final addition to multi-well plates were performed using a Beckman Biomek NX robotic platform to ensure repeatability from experiment to experiment. After incubation was complete, using the Biomek NX robot, plates were washed with PBS and fixed for 20 min at RT in 4% formaldehyde prepared in CSK buffer (80 mM potassium PIPES, pH 6.8, 5 mM EGTA, 2 mM MgCl2). After fixation, cells were briefly permeabilized (5 min) with 0.5% Triton-X and prepared for imaging by washing in PBS, aspirating the washed solution, and adding a 1 ng/ml DAPI solution to stain DNA and a generic protein stain (CellMask, Invitrogen) to facilitate cell and nuclear image segmentation. Cells were imaged in PBS.\nCells were imaged using the Cell Lab IC-100 Image Cytometer (IC-100; Beckman Coulter) platform that consists of 1) Nikon Eclipse TE2000-U Inverted Microscope (Nikon; Melville, NY); 2) Chroma 82000 triple band filter set (Chroma; Brattleboro, VT); 3) an imaging camera: Hamamatsu ORCA-ER Digital CCD camera (Hamamatsu; Bridgewater, NJ); and 4) a focusing camera: Photonics COHU Progressive scan camera (Photonics; Oxford, MA). […] In general, 49 to 64 images were captured per well for image analysis.\nWhile our initial AR studies using HTM were based upon CytoShop (Beckman-Coulter), [15], [33], these approaches were refined in the current work with the more robust server-client Pipeline Pilot image analysis platform (Basic and Advanced Imagine Collections, Pipeline Pilot 7.5, Accelrys, San Diego). Initially, the background signal was removed from all images using plate- and channel-specific correction images, generated by the sum projection of >600 randomly selected images for each channel from the image set. This allows for a pixel-by-pixel background subtraction that compensates any consistent uneven background artifacts in the image set. Furthermore, users are able to customize the degree of background subtraction by applying a multiplier to each correction image, useful for identification of objects such as nuclei or cell borders. After background subtraction, nuclear masks were generated using a combination of non-linear least squares and watershed-from-markers image manipulations of the DAPI images (Fig. 1B).",
  "data": [
    {"compound": "C[C@@H]1CC2=CC(=O)CC[C@@H]2[C@H]2CC[C@@]3(C)[C@@H](CC[C@]3(C)O)[C@@H]21", "note": "[Mb, Mibolerone]", "values": [
      {"measurement": "recovery of AR-F764 activity, % of control", "setting": "AR-F764L, discussion, test not specified", "result": 45, "unit": "%"},
      {"measurement": "hyperspeckling response", "setting": "HeLa AR-F764L", "result": 132, "unit": "fold increase"},
      {"measurement": "induction of transcriptional activity", "setting": "HeLa AR-F764L", "result": 36, "unit": "fold"},
      {"measurement": "increase in the percent of nuclear GFP signal", "setting": "HeLa AR-F764L, vs untreated", "result": 31, "unit": "%"},
      {"measurement": "Nuclear Translocation, Max", "setting": "HeLa F764L, % signal present in the nucleus", "result": "73.2±0.8", "unit": "%"},
      {"measurement": "Hyperspeckling, Max", "setting": "HeLa F764L, absolute numerical measurement", "result": "965±8"},
      {"measurement": "Transcriptional Activity, Max", "setting": "HeLa F764L, pARR2PB-dsRED2skl reporter, absolute numerical measurement", "result": "92.9±2.2"}
    ]}
  ]
}
